# Reference: patent US11059789B2, “Isoquinoline-steroid conjugates and uses thereof” (priority 2018, dated 2021)
# How the values were obtained:
# [1] = test system: RAW264.7 immortalized murine macrophages; test: TNFα secretion assay (LPS-induced, ELISA); assay type: cell-based; conditions: RAW264.7 cells, 4 hrs
# Experimental: The TNFα assay quantifies secreted TNFα from RAW264.7 immortalized murine macrophages as an indicator of inflammation. The cells were concurrently treated with LPS (as an inducer of inflammation) and a titration of test molecules or control compounds for 4 hrs. After the incubation period, the media was harvested and assayed via an ELISA assay. ODs of experimental samples are fit to those of a standard curve to extrapolate the TNFα concentration. IC50 values were calculated by fitting a curve to experimental values with the controls as the top and bottom limits of the curve. Selected compounds provided herein were subjected to this assay.
# TYK2 = TYK2 (Homo sapiens (Human), UniProt P29597); test: Kinase assay TYK2; assay type: biochemical; conditions: HCl salt
# Experimental: (§1) Inhibition of various kinases was assayed.
# PKCh = PKCh (Homo sapiens (Human), UniProt P24723); test: Kinase assay PKCh; assay type: biochemical; conditions: HCl salt
# Experimental: as §1
# JAK1 = JAK1 (Homo sapiens (Human), UniProt P23458); test: Kinase assay JAK1; assay type: biochemical; conditions: HCl salt
# Experimental: as §1
# JAK3 = JAK3 (Homo sapiens (Human), UniProt P52333); test: Kinase assay JAK3; assay type: biochemical; conditions: HCl salt
# Experimental: as §1
# PKCd = PKCd (Homo sapiens (Human), UniProt Q05655); test: Kinase assay PKCd; assay type: biochemical; conditions: HCl salt
# Experimental: as §1
# PKA = PKA (Homo sapiens, UniProt P17612); test: Kinase assay PKA; assay type: biochemical; conditions: HCl salt
# Experimental: as §1
# in vitro = assay type: cell-based
# JAK2 = JAK2 (Homo sapiens (Human), UniProt O60674); test: Kinase assay JAK2; assay type: biochemical; conditions: HCl salt
# ROCK1 = ROCK1 (Homo sapiens (Human), UniProt Q13464); test: Kinase assay ROCK1; assay type: biochemical; conditions: HCl salt
# Experimental: as §1
# HTM = HTM assay; assay type: cell-based; conditions: HCl salt
# Experimental: as §1
# AKT1 = AKT1 (Homo sapiens (Human), UniProt P31749); test: Kinase assay AKT1; assay type: biochemical; conditions: HCl salt
# Experimental: as §1
# PKCe = PKCe (Homo sapiens (Human), UniProt Q02156); test: Kinase assay PKCe; assay type: biochemical; conditions: HCl salt
# Experimental: as §1
# ROCK2 = ROCK2 (Homo sapiens (Human), UniProt O75116); test: Kinase assay ROCK2; assay type: biochemical; conditions: HCl salt
# Experimental: as §1
# PTM = PTM assay; assay type: cell-based; conditions: HCl salt
# Experimental: as §1
# NFkB = NFkB assay; assay type: cell-based; conditions: HCl salt
# Experimental: as §1
# IKKb = IKKb (Homo sapiens (Human), UniProt O14920); test: Kinase assay IKKb; assay type: biochemical; conditions: HCl salt
# Experimental: as §1
# Chain of PKCh (P24723 whole entry): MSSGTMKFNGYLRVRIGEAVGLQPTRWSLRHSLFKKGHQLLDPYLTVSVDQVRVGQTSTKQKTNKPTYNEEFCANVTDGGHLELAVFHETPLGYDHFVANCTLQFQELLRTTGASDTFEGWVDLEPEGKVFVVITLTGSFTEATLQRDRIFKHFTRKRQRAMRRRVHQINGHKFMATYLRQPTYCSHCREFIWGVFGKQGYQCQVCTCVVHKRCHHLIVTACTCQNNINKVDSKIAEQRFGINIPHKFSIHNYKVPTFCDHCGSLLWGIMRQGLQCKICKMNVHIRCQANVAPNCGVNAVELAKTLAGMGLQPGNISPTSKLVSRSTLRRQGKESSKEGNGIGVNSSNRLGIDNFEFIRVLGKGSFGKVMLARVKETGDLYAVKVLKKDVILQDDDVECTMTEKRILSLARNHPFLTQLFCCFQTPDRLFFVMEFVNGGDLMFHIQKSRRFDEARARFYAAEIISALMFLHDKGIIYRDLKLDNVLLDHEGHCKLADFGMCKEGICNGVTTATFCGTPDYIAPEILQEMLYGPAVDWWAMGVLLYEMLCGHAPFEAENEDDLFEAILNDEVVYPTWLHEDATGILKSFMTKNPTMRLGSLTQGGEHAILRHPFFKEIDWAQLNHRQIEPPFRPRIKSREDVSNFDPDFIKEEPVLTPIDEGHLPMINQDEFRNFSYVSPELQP
# Chain of JAK1 (P23458 whole entry, species assumed): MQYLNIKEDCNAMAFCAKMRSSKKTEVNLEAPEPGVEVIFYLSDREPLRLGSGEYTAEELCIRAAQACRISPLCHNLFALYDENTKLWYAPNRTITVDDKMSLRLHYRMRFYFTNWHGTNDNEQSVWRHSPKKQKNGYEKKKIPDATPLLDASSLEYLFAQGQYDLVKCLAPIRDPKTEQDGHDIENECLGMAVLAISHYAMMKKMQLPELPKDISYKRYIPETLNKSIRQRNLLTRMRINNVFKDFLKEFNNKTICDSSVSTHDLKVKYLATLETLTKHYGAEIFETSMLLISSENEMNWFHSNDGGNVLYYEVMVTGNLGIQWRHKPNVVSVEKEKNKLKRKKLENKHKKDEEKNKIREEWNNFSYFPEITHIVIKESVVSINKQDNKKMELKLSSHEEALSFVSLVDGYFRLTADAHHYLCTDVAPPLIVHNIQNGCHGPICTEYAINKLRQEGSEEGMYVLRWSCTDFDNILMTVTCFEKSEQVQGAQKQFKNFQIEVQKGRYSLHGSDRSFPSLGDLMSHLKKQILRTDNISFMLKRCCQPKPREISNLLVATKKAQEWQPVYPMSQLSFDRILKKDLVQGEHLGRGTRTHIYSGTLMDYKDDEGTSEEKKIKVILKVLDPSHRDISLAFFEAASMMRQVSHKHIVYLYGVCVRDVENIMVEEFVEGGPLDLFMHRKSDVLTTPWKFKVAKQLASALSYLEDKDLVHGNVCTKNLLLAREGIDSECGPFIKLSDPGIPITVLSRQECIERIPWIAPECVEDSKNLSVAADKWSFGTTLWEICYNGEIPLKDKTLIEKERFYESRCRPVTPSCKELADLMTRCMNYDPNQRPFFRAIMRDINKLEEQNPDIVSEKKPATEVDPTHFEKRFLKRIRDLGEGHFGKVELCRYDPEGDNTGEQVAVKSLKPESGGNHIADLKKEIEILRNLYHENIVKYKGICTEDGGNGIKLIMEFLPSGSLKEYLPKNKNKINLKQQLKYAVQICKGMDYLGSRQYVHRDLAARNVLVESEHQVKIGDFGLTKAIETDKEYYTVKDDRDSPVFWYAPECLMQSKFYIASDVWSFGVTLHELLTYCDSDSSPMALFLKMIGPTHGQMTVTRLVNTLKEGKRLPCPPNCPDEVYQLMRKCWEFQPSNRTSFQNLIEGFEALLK
# Chain of JAK3 (P52333 whole entry, species assumed): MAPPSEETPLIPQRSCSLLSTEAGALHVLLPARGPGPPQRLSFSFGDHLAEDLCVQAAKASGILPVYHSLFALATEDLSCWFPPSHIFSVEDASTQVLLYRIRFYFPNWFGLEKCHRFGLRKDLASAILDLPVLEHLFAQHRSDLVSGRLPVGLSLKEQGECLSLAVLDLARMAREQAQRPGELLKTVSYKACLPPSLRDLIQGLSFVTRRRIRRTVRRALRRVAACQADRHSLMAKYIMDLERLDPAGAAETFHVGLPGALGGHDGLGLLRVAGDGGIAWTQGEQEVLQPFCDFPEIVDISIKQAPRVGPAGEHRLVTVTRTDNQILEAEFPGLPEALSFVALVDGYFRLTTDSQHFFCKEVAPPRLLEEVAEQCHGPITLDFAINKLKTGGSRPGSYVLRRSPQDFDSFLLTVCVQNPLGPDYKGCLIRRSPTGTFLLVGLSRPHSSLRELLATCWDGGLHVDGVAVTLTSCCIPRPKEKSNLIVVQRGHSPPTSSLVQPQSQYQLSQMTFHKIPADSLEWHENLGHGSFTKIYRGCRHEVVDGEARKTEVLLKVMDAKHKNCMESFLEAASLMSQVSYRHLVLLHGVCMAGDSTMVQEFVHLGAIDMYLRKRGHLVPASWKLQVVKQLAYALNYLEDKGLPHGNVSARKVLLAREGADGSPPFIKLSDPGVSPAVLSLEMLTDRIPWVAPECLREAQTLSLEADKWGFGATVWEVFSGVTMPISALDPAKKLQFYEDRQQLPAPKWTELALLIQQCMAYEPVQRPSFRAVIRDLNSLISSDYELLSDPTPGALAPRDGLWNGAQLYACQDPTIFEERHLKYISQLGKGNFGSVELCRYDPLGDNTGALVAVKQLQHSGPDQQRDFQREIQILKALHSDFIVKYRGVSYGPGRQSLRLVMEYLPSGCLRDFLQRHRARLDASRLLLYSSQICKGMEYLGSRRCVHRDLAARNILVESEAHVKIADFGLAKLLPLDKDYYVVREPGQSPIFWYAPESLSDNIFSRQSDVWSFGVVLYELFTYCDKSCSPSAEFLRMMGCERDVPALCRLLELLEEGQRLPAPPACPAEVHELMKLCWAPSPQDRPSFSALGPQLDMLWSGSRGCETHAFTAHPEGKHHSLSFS
# Chain of IKKb (O14920 whole entry, species assumed): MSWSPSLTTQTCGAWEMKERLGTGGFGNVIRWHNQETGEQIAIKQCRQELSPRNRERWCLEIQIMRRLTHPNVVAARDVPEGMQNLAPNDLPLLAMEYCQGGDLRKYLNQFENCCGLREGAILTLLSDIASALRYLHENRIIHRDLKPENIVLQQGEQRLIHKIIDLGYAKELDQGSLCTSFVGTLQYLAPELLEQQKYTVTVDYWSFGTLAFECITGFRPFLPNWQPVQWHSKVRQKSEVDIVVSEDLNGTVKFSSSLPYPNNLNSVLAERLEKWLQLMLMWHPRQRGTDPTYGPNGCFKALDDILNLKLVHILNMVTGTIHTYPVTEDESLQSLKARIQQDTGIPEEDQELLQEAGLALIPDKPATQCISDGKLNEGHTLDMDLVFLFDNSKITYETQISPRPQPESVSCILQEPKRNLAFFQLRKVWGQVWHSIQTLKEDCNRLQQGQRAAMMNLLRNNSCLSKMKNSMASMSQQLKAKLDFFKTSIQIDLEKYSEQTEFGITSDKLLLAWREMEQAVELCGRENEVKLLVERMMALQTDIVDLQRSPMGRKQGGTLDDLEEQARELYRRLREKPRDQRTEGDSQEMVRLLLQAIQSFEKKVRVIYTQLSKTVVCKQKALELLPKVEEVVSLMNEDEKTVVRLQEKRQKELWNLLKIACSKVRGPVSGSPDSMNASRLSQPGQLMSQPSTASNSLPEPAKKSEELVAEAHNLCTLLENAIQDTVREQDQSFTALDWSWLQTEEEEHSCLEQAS
# Chain of PKCe (Q02156 whole entry, species assumed): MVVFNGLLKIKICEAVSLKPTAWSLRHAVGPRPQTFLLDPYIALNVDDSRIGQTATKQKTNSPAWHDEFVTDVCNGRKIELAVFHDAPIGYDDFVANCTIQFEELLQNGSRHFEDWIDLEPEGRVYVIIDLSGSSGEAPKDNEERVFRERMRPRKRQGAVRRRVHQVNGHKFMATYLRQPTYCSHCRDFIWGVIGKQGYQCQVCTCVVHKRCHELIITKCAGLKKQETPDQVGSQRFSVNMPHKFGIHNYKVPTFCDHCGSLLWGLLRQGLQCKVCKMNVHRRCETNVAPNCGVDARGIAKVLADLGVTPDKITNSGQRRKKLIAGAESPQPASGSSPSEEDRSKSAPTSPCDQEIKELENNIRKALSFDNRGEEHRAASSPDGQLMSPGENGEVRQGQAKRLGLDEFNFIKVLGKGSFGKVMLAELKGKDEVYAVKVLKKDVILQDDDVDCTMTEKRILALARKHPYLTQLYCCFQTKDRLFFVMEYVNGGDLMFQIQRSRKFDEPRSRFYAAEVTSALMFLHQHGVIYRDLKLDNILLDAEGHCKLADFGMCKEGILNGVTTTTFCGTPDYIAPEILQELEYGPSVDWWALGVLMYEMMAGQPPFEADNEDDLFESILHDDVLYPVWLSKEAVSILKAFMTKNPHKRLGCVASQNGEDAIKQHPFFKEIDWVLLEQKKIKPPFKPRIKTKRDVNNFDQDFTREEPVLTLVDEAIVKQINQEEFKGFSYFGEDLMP
# Chain of AKT1 (P31749 whole entry, species assumed): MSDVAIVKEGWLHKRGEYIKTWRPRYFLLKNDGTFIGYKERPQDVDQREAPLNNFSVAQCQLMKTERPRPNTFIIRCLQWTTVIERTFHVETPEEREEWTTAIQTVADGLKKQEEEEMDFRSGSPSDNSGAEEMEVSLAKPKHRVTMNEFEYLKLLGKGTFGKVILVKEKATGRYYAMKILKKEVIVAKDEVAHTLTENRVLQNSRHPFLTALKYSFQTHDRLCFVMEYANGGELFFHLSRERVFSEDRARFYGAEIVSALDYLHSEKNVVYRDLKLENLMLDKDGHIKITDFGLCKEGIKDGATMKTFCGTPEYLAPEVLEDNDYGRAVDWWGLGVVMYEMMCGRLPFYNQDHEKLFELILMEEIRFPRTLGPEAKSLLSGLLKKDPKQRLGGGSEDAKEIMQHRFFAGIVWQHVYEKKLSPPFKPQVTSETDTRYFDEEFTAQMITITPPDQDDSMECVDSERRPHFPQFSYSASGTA
structure (smiles),measurement,setting,value
C[C@@H]1C[C@H]2[C@@H]3CCC4=CC(=O)C=C[C@]4(C)[C@@]3(F)[C@@H](O)C[C@]2(C)[C@@]1(O)C(=O)COC(=O)c1cccc([C@@H]2C[C@H]2C(=O)Nc2ccc3cnccc3c2F)c1 [Example 91],IC50,[1],102 nM
C[C@@H]1C[C@H]2[C@@H]3CCC4=CC(=O)C=C[C@]4(C)[C@@]3(F)[C@@H](O)C[C@]2(C)[C@@]1(O)C(=O)COC(=O)CCC(=O)OCc1ccc(C(CCN)C(=O)Nc2ccc3cnccc3c2)cc1 (stereo partly drawn) [Example 12],IC50,[1]; Mus musculus,90.5 nM
C[C@@H]1C[C@H]2[C@@H]3CCC4=CC(=O)C=C[C@]4(C)[C@@]3(F)[C@@H](O)C[C@]2(C)[C@@]1(O)C(=O)COC(=O)C1CC1C(=O)OCCc1ccc(C(CN)C(=O)Nc2ccc3cnccc3c2)cc1 (stereo partly drawn) [Example 37],IC50,[1]; Mus musculus,3100 nM
CN(C)C(C(=O)Nc1ccc2cnccc2c1)c1ccc(COC(=O)CCC(=O)OCC(=O)[C@@]23OC(C)(C)O[C@@H]2C[C@H]2[C@@H]4CCC5=CC(=O)C=C[C@]5(C)[C@@]4(F)[C@@H](O)C[C@@]23C)cc1 (stereo partly drawn) [Example 28],IC50,[1]; Mus musculus,15.5 nM
C[C@@H]1C[C@H]2[C@@H]3CCC4=CC(=O)C=C[C@]4(C)[C@@]3(F)[C@@H](O)C[C@]2(C)[C@@]1(O)C(=O)COC(=O)C1CC1C(=O)OCc1ccc([C@@H](CN)C(=O)Nc2ccc3cnccc3c2)cc1 (stereo partly drawn) [Example 27],IC50,TYK2,50000 nM
same,IC50,PKCh,331 nM
same,IC50,JAK1,50000 nM
same,IC50,JAK3,11600 nM
same,IC50,PKCd,509 nM
same,IC50,PKA,317 nM
same,IC50,in vitro,100000 nM
same,IC50,JAK2,41700 nM
same,IC50,ROCK1,29 nM
same,IC50,HTM,6 nM
same,IC50,AKT1,2640 nM
same,IC50,PKCe,3460 nM
same,IC50,ROCK2,13 nM
same,IC50,PTM,145 nM
same,IC50,NFkB,1790 nM
same,IC50,IKKb,46800 nM
C[C@@H]1C[C@H]2[C@@H]3CCC4=CC(=O)C=C[C@]4(C)[C@@]3(F)[C@@H](O)C[C@]2(C)[C@@]1(O)C(=O)COC(=O)CCC(=O)OCc1ccc(C(CCNC(=O)OC(C)(C)C)C(=O)Nc2ccc3cnccc3c2)cc1 (stereo partly drawn) [Example 11],IC50,[1]; Mus musculus,429 nM
C[C@@H]1C[C@H]2[C@@H]3CCC4=CC(=O)C=C[C@]4(C)[C@@]3(F)[C@@H](O)C[C@]2(C)[C@@]1(O)C(=O)COC(=O)CCC(=O)OCc1ccc(C(C(=O)Nc2ccc3cnccc3c2)N(C)C)cc1 (stereo partly drawn) [Example 20],IC50,[1]; Mus musculus,144 nM
"C[C@@H]1C[C@H]2[C@@H]3CCC4=CC(=O)C=C[C@]4(C)[C@@]3(F)[C@@H](O)C[C@]2(C)[C@@]1(O)C(=O)COC(=O)c1cccc([C@@H]2C[C@H]2C(=O)Nc2ccc3cnccc3c2)c1 [Example 90, 2-((8S,9R,10S,11S,13S,14S,16R,17R)-9-fluoro-11,17-dihydroxy-10,13,16-trimethyl-3-oxo-6,7,8,9,10,11,12,13,14,15,16,17-dodecahydro-3H-cyclopenta[a]phenanthren-17-yl)-2-oxoethyl 3-((1R,2R)-2-(isoquinolin-6-ylcarbamoyl)cyclopropyl)benzoate]",IC50,[1]; Mus musculus,300 nM
CN(C)C(C(=O)Nc1ccc2cnccc2c1)c1ccc(COC(=O)CCC(=O)OCC(=O)[C@@]23OC(C)(C)O[C@@H]2C[C@H]2[C@@H]4C[C@H](F)C5=CC(=O)C=C[C@]5(C)[C@@]4(F)[C@@H](O)C[C@@]23C)cc1 (stereo partly drawn) [Example 23],IC50,[1]; Mus musculus,4.5 nM
CC1(C)O[C@@H]2C[C@H]3[C@@H]4C[C@H](F)C5=CC(=O)C=C[C@]5(C)[C@@]4(F)[C@@H](O)C[C@]3(C)[C@]2(C(=O)COC(=O)CCC(=O)OCc2ccc([C@@H](CN)C(=O)Nc3ccc4cnccc4c3)cc2)O1 [Example 40],IC50,TYK2,50000 nM
same,IC50,PKCh,190 nM
same,IC50,JAK1,50000 nM
same,IC50,JAK3,17700 nM
same,IC50,PKCd,152 nM
same,IC50,PKA,71 nM
same,IC50,ROCK1,19 nM
same,IC50,HTM,11 nM
same,IC50,AKT1,523 nM
same,IC50,PKCe,244 nM
same,IC50,ROCK2,13 nM
same,IC50,PTM,217 nM
same,IC50,NFkB,28 nM
same,IC50,IKKb,32900 nM
C[C@]12C=CC(=O)C=C1CC[C@@H]1[C@@H]2[C@@H](O)C[C@@]2(C)[C@H]1CC[C@]2(O)C(=O)COC(=O)C1CC1C(=O)OCc1ccc([C@@H](CN)C(=O)Nc2ccc3cnccc3c2)cc1 (stereo partly drawn) [Example 19],IC50,TYK2,50000 nM
same,IC50,PKCh,436 nM
same,IC50,JAK1,9570 nM
same,IC50,JAK3,2570 nM
same,IC50,PKCd,589 nM
same,IC50,PKA,332 nM
same,IC50,ROCK1,58 nM
same,IC50,AKT1,2540 nM
same,IC50,PKCe,4160 nM
same,IC50,ROCK2,27 nM
same,IC50,PTM,706 nM
same,IC50,NFkB,10000 nM
same,IC50,IKKb,50000 nM
CC(C)(C)OC(=O)NCC(C(=O)Nc1ccc2cnccc2c1)c1ccc(CCOC(=O)CCC(=O)OCC(=O)[C@@]23OC(C)(C)O[C@@H]2C[C@H]2[C@@H]4C[C@H](F)C5=CC(=O)C=C[C@]5(C)[C@@]4(F)[C@@H](O)C[C@@]23C)cc1 (stereo partly drawn) [Example 31],IC50,[1]; Mus musculus,5460 nM
CN(C)C(C(=O)Nc1ccc2cnccc2c1)c1ccc(COC(=O)CCC(=O)OCC(=O)[C@@]2(O)CC[C@H]3[C@@H]4CCC5=CC(=O)C=C[C@]5(C)[C@H]4[C@@H](O)C[C@@]32C)cc1 (stereo partly drawn) [Example 21],IC50,[1]; Mus musculus,1650 nM
CC(C)(C)OC(=O)NC[C@@H](C(=O)Nc1ccc2cnccc2c1)c1ccc(COC(=O)CCC(=O)OCC(=O)[C@@]23OC(C)(C)O[C@@H]2C[C@H]2[C@@H]4CCC5=CC(=O)C=C[C@]5(C)[C@@]4(F)[C@@H](O)C[C@@]23C)cc1 [Example 29],IC50,[1]; Mus musculus,71 nM
CC(C)(C)OC(=O)NC[C@@H](C(=O)Nc1ccc2cnccc2c1)c1ccc(COC(=O)CCC(=O)OCC(=O)[C@@]2(O)CC[C@H]3[C@@H]4CCC5=CC(=O)C=C[C@]5(C)[C@H]4[C@@H](O)C[C@@]32C)cc1 [Example 14],IC50,[1]; Mus musculus,620 nM
C[C@@H]1C[C@H]2[C@@H]3CCC4=CC(=O)C=C[C@]4(C)[C@@]3(F)[C@@H](O)C[C@]2(C)[C@@]1(O)C(=O)COC(=O)CCC(=O)OCCc1ccc(C(CN)C(=O)Nc2ccc3cnccc3c2)cc1 (stereo partly drawn) [Example 26],IC50,[1]; Mus musculus,227 nM
"C[C@@H]1C[C@H]2[C@@H]3CCC4=CC(=O)C=C[C@]4(C)[C@@]3(F)[C@@H](O)C[C@]2(C)[C@@]1(O)C(=O)COC(=O)CCC(=O)OCc1ccc(C(CNC(=O)OC(C)(C)C)C(=O)Nc2ccc3cnccc3c2)cc1 (stereo partly drawn) [Example 4, 4-(3-((tert-butoxycarbonyl)amino)-1-(isoquinolin-6-ylamino)-1-oxopropan-2-yl)benzyl (2-((8S,9R,10S,11S,13S,14S,16R,17R)-9-fluoro-11,17-dihydroxy-10,13,16-trimethyl-3-oxo-6,7,8,9,10,11,12,13,14,15,16,17-dodecahydro-3H-cyclopenta[a]phenanthren-17-yl)-2-oxoethyl) succinate]",IC50,[1]; Mus musculus,230 nM
